# Patent publication US20260078341A1, “TREATMENT OF CANCER USING CHIMERIC ANTIGEN RECEPTOR” (Novartis AG, priority 2014, published 2026)
# Read-outs that look alike come from different tables or passages of the source.
# How the values were obtained:
# [1] = Exercise and energy in elderly subjects; format: in vivo, human
# [2] = system: H1N1 A/California/07/2009; test: Hemagglutination inhibition titers after influenza vaccination, A/H1N1 vaccine strain; format: in vivo, human; details: for HI GMT ratio (CV %) A/H1N1: GMT at week 4 post vaccination/GMT at baseline
# Method: The trial was observer-blind because the placebo in the RAD001 0.5 mg daily and 20 mg weekly cohorts differed slightly from the RAD001 tablets in those cohorts. […] The treatment duration for all cohorts was 6 weeks during which time subjects underwent safety evaluations in the clinic every 2 weeks. After subjects had been dosed for 4 weeks, RAD001 steady state levels were measured pre-dose and at one hour post dose. After completing the 6 week course of study drug, subjects were given a 2 week drug free break to reverse any possible RAD001-induced immunosuppression, and then were given a 2012 seasonal influenza vaccination (Agrippal®, Novartis Vaccines and Diagnostics, Siena, Italy) containing the strains H1N1 A/California/07/2009, H3N2 A/Victoria/210/2009, B/Brisbane/60/2008. Four weeks after influenza vaccination, subjects had serum collected for influenza titer measurements. Antibody titers to the 3 influenza vaccine strains as well as to 2 heterologous strains (A/H1N1 strain A/New Jersy/8/76 and A/H3N2 strain A/Victoria/361/11) were measured by standard hemagglutination inhibition assay (Kendal, A P et al. (1982) Concepts and procedures for laboratory-based influenza surveillance. Atlanta: Centers for Disease Control and Prevention B17-B35). Levels of IgG and IgM specific for the A/H1N1/California/07/2009 were measured in serum samples taken before and 4 weeks after influenza vaccination as described previously (Spensieri, F. et al. (2013) Proc. Natl. Acad. Sci. USA 110:14330-14335). Results were expressed as fluorescence intensity.
# The primary analysis of geometric mean titer ratios was done using a normal Bayesian regression model with non-informative priors. This model was fitted to each antibody titer on the log scale. The primary outcome in each model was the Day 84 measurement. The Day 63 measurement was included in the outcome vector. The model fitted using SAS 9.2 proc mixed with the prior statement. The covariance structure of the matrix was considered as unstructured (option type=UN). A flat prior was used. For the secondary analysis of seroconversion rates, logistic regression was used.
# The ability of RAD001 to improve immune function in elderly volunteers was evaluated by measuring the serologic response to the 2012 seasonal influenza vaccine. The hemagglutination inhibition (HI) geometric mean titers (GMT) to each of the 3 influenza vaccine strains at baseline and 4 weeks after influenza vaccination are provided in Table 6. The primary analysis variable was the HI GMT ratio (4 weeks post vaccination/baseline). […] This endpoint was chosen because a 1.2-fold increase in the influenza GMT ratio induced by the MF-59 vaccine adjuvant was associated with a decrease in influenza illness (Iob, A et al. (2005) Epidemiol Infect 133:687-693).
# Rates of seroconversion 4 weeks after influenza vaccination were also evaluated. Seroconversion was defined as the change from a negative pre-vaccination titer (i.e., HI titer <1:10) to post-vaccination HI titer ≥1:40 or at least 4-fold increase from a non-negative (>1:10) pre-vaccination HI titer.
structure (smiles),measurement,setting,value
"CO[C@H]1C[C@@H]2CC[C@@H](C)[C@@](O)(O2)C(=O)C(=O)N2CCCC[C@H]2C(=O)O[C@H]([C@H](C)C[C@@H]2CC[C@@H](OCCO)[C@H](OC)C2)CC(=O)[C@H](C)/C=C(\C)[C@@H](O)[C@@H](OC)C(=O)[C@H](C)C[C@H](C)/C=C/C=C/C=C/1C [RAD001, (1R,9S,12S,15R,16E,18R,19R,21R,23S,24E,26E,28E,30S,32S,35R)-1,18-dihydroxy-12-{(1R)-2-[(1S,3R,4R)-4-(2-hydroxyethoxy)-3-methoxycyclohexyl]-1-methylethyl}-19,30-dimethoxy-15,17,21,23,29,35-hexamethyl-11,36-dioxa-4-azatricyclo[30.3.1.0^4,9]hexatriaconta-16,24,26,28-tetraene-2,3,10,14,20-pentaone]",Treatment-related AE: Thrombocytopenia,"RAD001 5 mg weekly, N = 53",0 n (%)
same,Treatment-related AE: Tongue ulceration,"RAD001 5 mg weekly, N = 53",1 (1.9%) n (%)
same,Treatment-related AE: Urinary tract infection,"RAD001 5 mg weekly, N = 53",0 n (%)
same,Treatment-related AEs: Patients with AE(s),"RAD001 5 mg weekly, N = 53",20 (37.7%) n (%)
same,Treatment-related AEs: Total AE(s),"RAD001 5 mg weekly, N = 53",46 n (%)
same,Treatment-related AE: Blood cholesterol increased,"RAD001 20 mg weekly, N = 53",2 (3.8%) n (%)
same,Treatment-related AE: Conjunctivitis,"RAD001 20 mg weekly, N = 53",0 n (%)
same,Treatment-related AE: Diarrhea,"RAD001 20 mg weekly, N = 53",1 (1.9%) n (%)
same,Treatment-related AE: Dry mouth,"RAD001 20 mg weekly, N = 53",2 (3.8%) n (%)
same,Treatment-related AE: Dyspepsia,"RAD001 20 mg weekly, N = 53",2 (3.8%) n (%)
same,Treatment-related AE: Erythema,"RAD001 20 mg weekly, N = 53",0 n (%)
same,Treatment-related AE: Fatigue,"RAD001 20 mg weekly, N = 53",4 (7.5%) n (%)
same,Treatment-related AE: Headache,"RAD001 20 mg weekly, N = 53",9 (17.0%) n (%)
same,Treatment-related AE: Insomnia,"RAD001 20 mg weekly, N = 53",1 (1.9%) n (%)
same,Treatment-related AE: Limb discomfort,"RAD001 20 mg weekly, N = 53",0 n (%)
same,Treatment-related AE: Low density lipoprotein increased,"RAD001 20 mg weekly, N = 53",2 (3.8%) n (%)
same,Treatment-related AE: Mouth ulceration,"RAD001 20 mg weekly, N = 53",9 (17.0%) n (%)
same,Treatment-related AE: Mucosal inflammation,"RAD001 20 mg weekly, N = 53",2 (3.8%) n (%)
same,Treatment-related AE: Neutropenia,"RAD001 20 mg weekly, N = 53",3 (5.7%) n (%)
same,Treatment-related AE: Oral pain,"RAD001 20 mg weekly, N = 53",1 (1.9%) n (%)
same,Treatment-related AE: Paresthesia oral,"RAD001 20 mg weekly, N = 53",0 n (%)
same,Treatment-related AE: Pruritus,"RAD001 20 mg weekly, N = 53",1 (1.9%) n (%)
same,Treatment-related AE: Stomatitis,"RAD001 20 mg weekly, N = 53",2 (3.8%) n (%)
same,Treatment-related AE: Thrombocytopenia,"RAD001 20 mg weekly, N = 53",2 (3.8%) n (%)
same,Treatment-related AE: Tongue ulceration,"RAD001 20 mg weekly, N = 53",0 n (%)
same,Treatment-related AE: Urinary tract infection,"RAD001 20 mg weekly, N = 53",2 (3.8%) n (%)
same,Treatment-related AEs: Patients with AE(s),"RAD001 20 mg weekly, N = 53",27 (50.9%) n (%)
same,Treatment-related AEs: Total AE(s),"RAD001 20 mg weekly, N = 53",109 n (%)
same,tolerability,"elderly volunteers, 6 weeks, particularly 0.5 mg daily and 5 mg weekly",well tolerated
same,exercise and energy,[1],increases in exercise and energy
same,HI GMT (CV %) A/H1N1,"[2]; Baseline (2 weeks prior to influenza vaccination), RAD001 0.5 mg daily",102.8 (186.9)
same,HI GMT (CV %) A/H1N1,"[2]; Baseline (2 weeks prior to influenza vaccination), RAD001 5 mg weekly",84.2 (236.4)
same,HI GMT (CV %) A/H1N1,"[2]; Baseline (2 weeks prior to influenza vaccination), RAD001 20 mg weekly",90.1 (188.4)
same,HI GMT ratio (CV %) A/H1N1,[2]; RAD001 0.5 mg daily,2.6 (302.5)
same,HI GMT ratio (CV %) A/H1N1,[2]; RAD001 5 mg weekly,2.5 (214.3)
same,HI GMT ratio (CV %) A/H1N1,[2]; RAD001 20 mg weekly,1.8 (201.5)
same,"Percent of subjects with seroconversion to influenza 4 weeks after vaccination, H1N1","[2]; Intention to Treat Population, 0.5 mg",27%
same,"Percent of subjects with seroconversion to influenza 4 weeks after vaccination, H1N1","[2]; Intention to Treat Population, 5 mg",27%
same,"Percent of subjects with seroconversion to influenza 4 weeks after vaccination, H1N1","[2]; Intention to Treat Population, 20 mg",17%
same,"Percent of subjects with seroconversion to influenza 4 weeks after vaccination, H1N1","[2]; Subjects with Baseline Titers <=40, 0.5 mg",42%
same,"Percent of subjects with seroconversion to influenza 4 weeks after vaccination, H1N1","[2]; Subjects with Baseline Titers <=40, 5 mg",45%
same,"Percent of subjects with seroconversion to influenza 4 weeks after vaccination, H1N1","[2]; Subjects with Baseline Titers <=40, 20 mg",36%
same,HI GMT (CV %) A/H1N1,"[2]; Week 4 after influenza vaccination, RAD001 0.5 mg daily",190.2 (236.9)
same,HI GMT (CV %) A/H1N1,"[2]; Week 4 after influenza vaccination, RAD001 5 mg weekly",198.73(195.6)
same,HI GMT (CV %) A/H1N1,"[2]; Week 4 after influenza vaccination, RAD001 20 mg weekly",129.7 (175.9)
